Measured values reported in PubChem BioAssay AID256 (DTP/NCI, 2004).
Several values for one entry are separate records, joined by “and”; a condition that tells them apart may be missing. Identical values can stand only once. Toxic doses and inconclusive results are not listed. The calls were made as follows: active = survival T/C of 150% or more; inactive = T/C below 125% in these data.

System: CD2F1 mice, L1210 leukemia ip, survival T/C
Assay: NCI In Vivo Anticancer Drug Screen. Data for tumor model L1210 Leukemia (intraperitoneal) in CD2F1 (CDF1) mice
Details: higher = longer survival
How it was run: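 Implant tumor; dose compound or vehicle; measure endpoint in both groups; report treated divided by control.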

[1] = endpoint: mean survival time, dose: 100.0 mg/kg/injection, schedule: Q04DX003 (ip), vehicle: saline
[2] = endpoint: mean survival time, dose: 200.0 mg/kg/injection, schedule: Q04DX003 (ip), vehicle: saline
[3] = endpoint: mean survival time, dose: 400.0 mg/kg/injection, schedule: Q04DX003 (ip), vehicle: saline
[4] = endpoint: mean survival time, dose: 100.0 mg/kg/injection, schedule: Q04DX002 (ip), vehicle: saline with Tween-80
[5] = endpoint: mean survival time, dose: 100.0 mg/kg/injection, schedule: Q01DX009 (ip), vehicle: saline with Tween-80
[6] = endpoint: mean survival time, dose: 100.0 mg/kg/injection, schedule: Q04DX003 (ip), vehicle: saline with Tween-80
[7] = endpoint: mean survival time, dose: 200.0 mg/kg/injection, schedule: Q01DX009 (ip), vehicle: saline with Tween-80
[8] = endpoint: mean survival time, dose: 200.0 mg/kg/injection, schedule: Q04DX003 (ip), vehicle: saline with Tween-80
[9] = endpoint: mean survival time, dose: 400.0 mg/kg/injection, schedule: Q04DX003 (ip), vehicle: saline with Tween-80
[10] = endpoint: mean survival time, dose: 200.0 mg/kg/injection, schedule: Q04DX002 (ip), vehicle: saline with Tween-80
[11] = endpoint: mean survival time, dose: 400.0 mg/kg/injection, schedule: Q04DX002 (ip), vehicle: saline with Tween-80
[12] = endpoint: mean survival time, dose: 50.0 mg/kg/injection, schedule: Q01DX009 (ip), vehicle: Klucel (hydroxypropylcellulose) (HPC)
[13] = endpoint: mean survival time, dose: 100.0 mg/kg/injection, schedule: Q01DX009 (ip), vehicle: Klucel (hydroxypropylcellulose) (HPC)
[14] = endpoint: mean survival time, dose: 200.0 mg/kg/injection, schedule: Q01DX009 (ip), vehicle: Klucel (hydroxypropylcellulose) (HPC)
[15] = endpoint: mean survival time, dose: 100.0 mg/kg/injection, schedule: Q04DX002 (ip), vehicle: Klucel (hydroxypropylcellulose) (HPC)
[16] = endpoint: mean survival time, dose: 200.0 mg/kg/injection, schedule: Q04DX002 (ip), vehicle: Klucel (hydroxypropylcellulose) (HPC)
[17] = endpoint: mean survival time, dose: 400.0 mg/kg/injection, schedule: Q04DX002 (ip), vehicle: Klucel (hydroxypropylcellulose) (HPC)

Measured: T/C

C=C(C)CNC1=C(C)C(=O)C2=C(C1=O)[C@@H](COC(N)=O)[C@]1(OC)[C@@H]3N[C@@H]3CN21
inactive: endpoint: mean survival time, dose: 1.5 mg/kg/injection, schedule: Q01DX001 (ip), vehicle: water 97 % of control | endpoint: mean survival time, dose: 3.0 mg/kg/injection, schedule: Q01DX001 (ip), vehicle: water 103 % of control | endpoint: mean survival time, dose: 6.0 mg/kg/injection, schedule: Q01DX001 (ip), vehicle: distilled water + Tween-80 104 % of control | endpoint: mean survival time, dose: 6.0 mg/kg/injection, schedule: Q01DX001 (ip), vehicle: water 103 % of control | endpoint: mean survival time, dose: 12.0 mg/kg/injection, schedule: Q01DX001 (ip), vehicle: distilled water + Tween-80 114 % of control | endpoint: mean survival time, dose: 12.0 mg/kg/injection, schedule: Q01DX001 (ip), vehicle: water 108 % of control | endpoint: mean survival time, dose: 48.0 mg/kg/injection, schedule: Q01DX001 (ip), vehicle: distilled water + Tween-80 108 % of control

O=C1NCCCN1O
inactive: [1] 104 % of control | [2] 100 % of control | [3] 112 % of control

CC1(C(=O)O)OCCO1
inactive: [1] 97 % of control | [2] 103 % of control | [3] 96 % of control

Cc1cn(C2CC3O[P@](=S)(Nc4ccccc4)OCC3O2)c(=O)[nH]c1=O (some centres undefined)
inactive: endpoint: median survival time, dose: 12.75 mg/kg/injection, schedule: Q01DX005 (ip), vehicle: saline with Tween-80 100 % of control | endpoint: median survival time, dose: 25.5 mg/kg/injection, schedule: Q01DX005 (ip), vehicle: saline with Tween-80 100 % of control | endpoint: median survival time, dose: 51.0 mg/kg/injection, schedule: Q01DX005 (ip), vehicle: saline with Tween-80 100 % of control | endpoint: median survival time, dose: 102.0 mg/kg/injection, schedule: Q01DX005 (ip), vehicle: saline with Tween-80 93 % of control

N#CCCN=C1C=CC(=C(c2ccc(NCCC#N)cc2)c2ccc(Cl)cc2Cl)C=C1
inactive: [4] 117 % of control

Cc1ccccc1N=Cc1ccc(N(C)C)cc1
inactive: [5] 96 % of control | [6] 97 % of control | [7] 95 % of control | [8] 103 % of control | endpoint: mean survival time, dose: 400.0 mg/kg/injection, schedule: Q01DX009 (ip), vehicle: saline with Tween-80 90 % of control | [9] 98 % of control

Cc1cc(C)nc(NC(=S)N/N=C/c2ccccn2)n1
inactive: [4] 98 % of control | [10] 98 % of control | [11] 106 % of control

O=S1(=O)CC(Cl)(Br)C1 (tested in a mixture with another compound)
inactive: [12] 92 % of control | [13] 107 % of control | [14] 103 % of control

Cn1c(CC(O)c2nc3ccccc3n2C)nc2ccccc21 (centres undefined)
inactive: [12] 97 % of control | [13] 101 % of control | [14] 120 % of control

CC1(C)CC(=O)C2=C(C1)OC1(O)CC(C)(C)CC(=O)C1C2c1ccccc1[N+](=O)[O-] (centres undefined)
inactive: endpoint: mean survival time, dose: 3.13 mg/kg/injection, schedule: Q01DX001 (ip), vehicle: saline with Tween-80 103 % of control | endpoint: mean survival time, dose: 3.13 mg/kg/injection, schedule: Q01DX009 (ip), vehicle: saline with Tween-80 100 % of control | endpoint: mean survival time, dose: 6.25 mg/kg/injection, schedule: Q01DX001 (ip), vehicle: saline with Tween-80 90 % of control | endpoint: mean survival time, dose: 6.25 mg/kg/injection, schedule: Q01DX009 (ip), vehicle: saline with Tween-80 107 % of control | endpoint: mean survival time, dose: 12.5 mg/kg/injection, schedule: Q01DX001 (ip), vehicle: saline with Tween-80 97 % of control | endpoint: mean survival time, dose: 12.5 mg/kg/injection, schedule: Q01DX009 (ip), vehicle: saline with Tween-80 97 % of control | endpoint: mean survival time, dose: 100.0 mg/kg/injection, schedule: Q01DX001 (ip), vehicle: saline with Tween-80 87 % of control

Cc1cc(N2CCCN(C)CC2)nc(/N=C(\N)Nc2ccc(Cl)c(Cl)c2)n1
inactive: [6] 88 % of control

O=C(Nc1cccc2ccccc12)[C@H]1C[C@H]2C=C[C@@H]1C2
inactive: endpoint: mean survival time, dose: 37.5 mg/kg/injection, schedule: Q01DX009 (ip), vehicle: saline with Tween-80 101 % of control | endpoint: mean survival time, dose: 75.0 mg/kg/injection, schedule: Q01DX009 (ip), vehicle: saline with Tween-80 95 % of control | endpoint: mean survival time, dose: 150.0 mg/kg/injection, schedule: Q01DX009 (ip), vehicle: saline with Tween-80 95 % of control | endpoint: mean survival time, dose: 300.0 mg/kg/injection, schedule: Q01DX009 (ip), vehicle: saline with Tween-80 97 % of control

CC1C(=O)OC2C1CCC1(C)C(O)OC(=O)C3(O)OC231 (centres undefined)
inactive: [4] 104 % of control | [10] 96 % of control | [11] 96 % of control

CC(C)CCC(=O)/C=C\c1ccccc1
inactive: endpoint: mean survival time, dose: 50.0 mg/kg/injection, schedule: Q04DX002 (ip), vehicle: saline with Tween-80 104 % of control | [4] 96 % of control | [10] 86 % of control | [11] 86 % of control

O=C(C[n+]1ccccc1)c1ccccc1
inactive: endpoint: mean survival time, dose: 25.0 mg/kg/injection, schedule: Q01DX001 (ip), vehicle: saline 102 % of control | endpoint: mean survival time, dose: 50.0 mg/kg/injection, schedule: Q01DX001 (ip), vehicle: saline 106 % of control | endpoint: mean survival time, dose: 100.0 mg/kg/injection, schedule: Q01DX001 (ip), vehicle: saline 96 % of control and 97 % of control | [4] 96 % of control

CCCCCCCCCCCCCCCCNS(=O)(=O)c1ccc2sc(SC)nc2c1
inactive: endpoint: mean survival time, dose: 12.5 mg/kg/injection, schedule: Q04DX002 (ip), vehicle: saline with Tween-80 93 % of control | endpoint: mean survival time, dose: 25.0 mg/kg/injection, schedule: Q04DX002 (ip), vehicle: saline with Tween-80 93 % of control

OCC1OC(n2cnc3cc4ccccc4cc32)C(O)C1O (centres undefined)
inactive: endpoint: median survival time, dose: 13.25 mg/kg/injection, schedule: Q01DX005 (ip), vehicle: saline with Tween-80 100 % of control | endpoint: median survival time, dose: 26.5 mg/kg/injection, schedule: Q01DX005 (ip), vehicle: saline with Tween-80 98 % of control | endpoint: median survival time, dose: 53.0 mg/kg/injection, schedule: Q01DX005 (ip), vehicle: saline with Tween-80 88 % of control | endpoint: median survival time, dose: 106.0 mg/kg/injection, schedule: Q01DX005 (ip), vehicle: saline with Tween-80 91 % of control

CCCc1ccc(NS(=O)(=O)c2ccc(C)cc2)cc1
inactive: [15] 98 % of control | [16] 103 % of control | [17] 92 % of control

O=C(COc1ccccc1)NCc1ccc(Cl)cc1
inactive: [6] 98 % of control | [8] 98 % of control | [9] 96 % of control

O=c1[nH]c(=O)c2ncn(C3OC(CO)C(O)C3O)c2[nH]1.O=c1[nH]c(=O)c2ncn(C3OC(CO)C(O)C3O)c2[nH]1.[NH2-].[NH2-].[Pt+2] (centres undefined)
inactive: endpoint: mean survival time, dose: 6.25 mg/kg/injection, schedule: Q#A X018 (ip), vehicle: water 116 % of control | endpoint: mean survival time, dose: 12.5 mg/kg/injection, schedule: Q04DX003 (ip), vehicle: water 106 % of control | endpoint: mean survival time, dose: 12.5 mg/kg/injection, schedule: Q#A X018 (ip), vehicle: water 116 % of control | endpoint: mean survival time, dose: 25.0 mg/kg/injection, schedule: Q#A X018 (ip), vehicle: water 124 % of control | endpoint: mean survival time, dose: 50.0 mg/kg/injection, schedule: Q04DX003 (ip), vehicle: water 106 % of control | endpoint: mean survival time, dose: 100.0 mg/kg/injection, schedule: Q04DX003 (ip), vehicle: water 111 % of control | endpoint: mean survival time, dose: 200.0 mg/kg/injection, schedule: Q04DX003 (ip), vehicle: water 106 % of control | endpoint: mean survival time, dose: 400.0 mg/kg/injection, schedule: Q04DX003 (ip), vehicle: water 118 % of control

C=C(C)C(=O)OCCN(C)C (tested in a mixture with another compound)
inactive: [5] 97 % of control | [6] 100 % of control | [7] 106 % of control | [8] 122 % of control | [9] 92 % of control

O=C(CNC(=O)Nc1cccc(C(F)(F)F)c1)N/N=C/c1cc(Br)ccc1O
inactive: endpoint: mean survival time, dose: 50.0 mg/kg/injection, schedule: Q01DX009 (ip), vehicle: saline with Tween-80 96 % of control | [5] 88 % of control

Nc1nc(N)c(-c2cccc(Cl)c2)c(COc2ccc(NC(=O)Nc3cccc(S(=O)(=O)F)c3)cc2)n1
inactive: endpoint: mean survival time, dose: 37.5 mg/kg/injection, schedule: Q01DX001 (ip), vehicle: saline with Tween-80 100 % of control | endpoint: mean survival time, dose: 75.0 mg/kg/injection, schedule: Q01DX001 (ip), vehicle: saline with Tween-80 91 % of control | endpoint: mean survival time, dose: 150.0 mg/kg/injection, schedule: Q01DX001 (ip), vehicle: saline with Tween-80 92 % of control

Sc1c(Cl)c(Cl)c(Cl)c(Cl)c1Cl
inactive: [15] 96 % of control | [16] 90 % of control | [17] 90 % of control
